This passage reports inhibition results from ChEMBL document CHEMBL5393457, “Combined inhibition of amino acid transporters for inhibiting human plasmacytoid dendritic cell activity during autoimmunity” (2022).

SMILES strings stand for the structures. Calls of active or inactive are those of the source. The rule behind the calls is not given here. Bounds are passed on as bounds.

Experiment [1] concerns Plasmacytoid dendritic cell. As to the kind of experiment: Inhibition of mTORC1/mTORC2 in CpG-A and IL-3-activated human plasmacytoid dendritic cells at 200 ng/mL assessed as decrease in TNF production. It counts as cell-based.
Experiment [2] relates to Plasmacytoid dendritic cell. As to the kind of experiment: Inhibition of mTORC1/mTORC2 in CpG-A and IL-3-activated human plasmacytoid dendritic cells at 200 ng/mL assessed as decrease in SLC7A5 expression. It is filed as cell-based.
The subject of experiment [3] is Plasmacytoid dendritic cell. As to the kind of experiment: Inhibition of mTORC1/mTORC2 in IL-3 and CpG-A-activated human plasmacytoid dendritic cells at 200 nM assessed as decrease in decrease in ENPP2/IFNA2 expression. It counts as cell-based.
Experiment [4] relates to Plasmacytoid dendritic cell. As to the kind of experiment: Inhibition of mTORC1/mTORC2 in IL-3 and CpG-A-activated human plasmacytoid dendritic cells at 200 nM assessed as decrease in decrease in MYO1E/IFNA2 expression. It is filed as cell-based.
For experiment [5], the system named is Plasmacytoid dendritic cell. As to the kind of experiment: Inhibition of mTORC1/mTORC2 in CpG-A and IL-3-activated human plasmacytoid dendritic cells at 200 ng/mL assessed as decrease in IFN-alpha production. It is filed as cell-based.
For experiment [6], the system named is Plasmacytoid dendritic cell. As to the kind of experiment: Inhibition of mTORC1/mTORC2 in CpG-A and IL-3-activated human plasmacytoid dendritic cells at 200 ng/mL assessed as decrease in SLC3A2 expression. It is filed as cell-based.
Experiment [7] relates to Plasmacytoid dendritic cell. As to the kind of experiment: Inhibition of mTORC1/mTORC2 in TLR9-activated human plasmacytoid dendritic cells at 1 uM assessed as decrease in CpG-A stimulated SLC7A11 expression. It is filed as cell-based.
Experiment [8] addresses Large neutral amino acids transporter small subunit 1 (Homo sapiens) (UniProt Q01650). As to the kind of experiment: Inhibition of human LAT1 at 100 uM relative to control.
In experiment [9] the test system is Plasmacytoid dendritic cell. As to the kind of experiment: Inhibition of SLC7A5/SLC3A2 in CpG-A-stimulated human plasmacytoid dendritic cells at 10 uM assessed as decrease in kynurenine transport. It counts as cell-based.
The test system of experiment [10] is Plasmacytoid dendritic cell. As to the kind of experiment: Inhibition of F1F0-ATP synthase in CpG-A-stimulated human plasmacytoid dendritic cells at 1 uM assessed as reduction in TNF production in presence of 10 uM heptelidic acid. It counts as cell-based.
In experiment [11] the test system is Plasmacytoid dendritic cell. As to the kind of experiment: Inhibition of F1F0-ATP synthase in human plasmacytoid dendritic cells at 1 uM assessed as decrease in IFN-alpha production. It is filed as cell-based.
Experiment [12] deals with Plasmacytoid dendritic cell. As to the kind of experiment: Inhibition of F1F0-ATP synthase in human plasmacytoid dendritic cells at 1 uM assessed as decrease in TNF production. It counts as cell-based.
The subject of experiment [13] is Plasmacytoid dendritic cell. As to the kind of experiment: Inhibition of F1F0-ATP synthase in CpG-A-stimulated human plasmacytoid dendritic cells at 1 uM assessed as reduction in IFN-alpha production in presence of 10 uM heptelidic acid. It counts as cell-based.
For experiment [14], the target named is T1, Signal transducer and activator of transcription 5A (Homo sapiens) (UniProt P42229).
T1 sequence (whole entry): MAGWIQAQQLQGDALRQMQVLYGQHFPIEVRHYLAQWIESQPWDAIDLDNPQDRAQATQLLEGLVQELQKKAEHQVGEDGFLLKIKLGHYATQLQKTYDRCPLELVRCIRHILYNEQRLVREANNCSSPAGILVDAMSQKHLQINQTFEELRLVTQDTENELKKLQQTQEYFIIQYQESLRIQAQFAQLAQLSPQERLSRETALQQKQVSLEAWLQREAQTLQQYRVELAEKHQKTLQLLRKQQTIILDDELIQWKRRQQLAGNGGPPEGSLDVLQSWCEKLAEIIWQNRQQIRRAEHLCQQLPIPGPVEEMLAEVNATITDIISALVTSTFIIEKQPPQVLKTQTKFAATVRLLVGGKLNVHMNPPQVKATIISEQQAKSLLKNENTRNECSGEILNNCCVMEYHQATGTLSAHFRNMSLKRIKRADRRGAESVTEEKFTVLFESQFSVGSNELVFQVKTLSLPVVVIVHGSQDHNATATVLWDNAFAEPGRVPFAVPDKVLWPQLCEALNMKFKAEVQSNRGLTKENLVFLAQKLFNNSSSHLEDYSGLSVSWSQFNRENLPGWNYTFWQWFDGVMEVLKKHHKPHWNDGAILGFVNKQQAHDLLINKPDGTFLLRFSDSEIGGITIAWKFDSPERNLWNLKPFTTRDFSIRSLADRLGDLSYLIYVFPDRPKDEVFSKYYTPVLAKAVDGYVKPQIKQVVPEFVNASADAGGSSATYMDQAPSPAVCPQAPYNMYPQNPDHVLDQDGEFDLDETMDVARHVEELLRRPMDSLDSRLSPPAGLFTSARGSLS
As to the kind of experiment: Inhibition of STAT5 in IL-3 and CpG-A-stimulated human plasmacytoid dendritic cells at 1 to 2 uM assessed as decrease in TNF production in presence of 100 uM sulfasalazine. It is filed as cell-based. To be noted: Plasmacytoid dendritic cell, dose 1-2 µM.

In experiment [15] the target is T1, Signal transducer and activator of transcription 5A (Homo sapiens). As to the kind of experiment: Inhibition of STAT5 in IL-3 and CpG-A-stimulated human plasmacytoid dendritic cells at 1 to 2 uM assessed as decrease in IFN-alpha production in presence of 100 uM sulfasalazine. It counts as cell-based. To be noted: Plasmacytoid dendritic cell, dose 1-2 µM.
Experiment [16] deals with Glyceraldehyde-3-phosphate dehydrogenase (Homo sapiens) (UniProt P04406). As to the kind of experiment: Inhibition of GAPDH in CpG-A-stimulated human plasmacytoid dendritic cells at 10 uM assessed as reduction in IFNa-alpha production. It is filed as cell-based. To be noted: Plasmacytoid dendritic cell.
Experiment [17] shares this target. As to the kind of experiment: Inhibition of GAPDH in CpG-A-stimulated human plasmacytoid dendritic cells at 10 uM assessed as reduction in IFN-alpha production in presence of 1 uM oligomycin. It counts as cell-based. To be noted: Plasmacytoid dendritic cell.
Experiment [18] has the same target. As to the kind of experiment: Inhibition of GAPDH in CpG-A-stimulated human plasmacytoid dendritic cells at 10 uM assessed as reduction in overall protein synthesis. To be noted: Plasmacytoid dendritic cell. It is filed as cell-based.
Experiment [19] has the same target. As to the kind of experiment: Inhibition of GAPDH in CpG-A-stimulated human plasmacytoid dendritic cells at 10 uM assessed as reduction in TNF production in presence of 1 uM oligomycin. It counts as cell-based. To be noted: Plasmacytoid dendritic cell.
Experiment [20] has the same target. As to the kind of experiment: Inhibition of GAPDH in CpG-A-stimulated human plasmacytoid dendritic cells at 10 uM assessed as reduction in TNF production. It is filed as cell-based. To be noted: Plasmacytoid dendritic cell.
Experiment [21] shares this target. As to the kind of experiment: Inhibition of GAPDH in CpG-A-stimulated human plasmacytoid dendritic cells at 10 uM assessed as reduction in secreted lactate levels. It is filed as cell-based. To be noted: Plasmacytoid dendritic cell.

Sequence of Glyceraldehyde-3-phosphate dehydrogenase (Homo sapiens) (P04406 2-335 limits assumed): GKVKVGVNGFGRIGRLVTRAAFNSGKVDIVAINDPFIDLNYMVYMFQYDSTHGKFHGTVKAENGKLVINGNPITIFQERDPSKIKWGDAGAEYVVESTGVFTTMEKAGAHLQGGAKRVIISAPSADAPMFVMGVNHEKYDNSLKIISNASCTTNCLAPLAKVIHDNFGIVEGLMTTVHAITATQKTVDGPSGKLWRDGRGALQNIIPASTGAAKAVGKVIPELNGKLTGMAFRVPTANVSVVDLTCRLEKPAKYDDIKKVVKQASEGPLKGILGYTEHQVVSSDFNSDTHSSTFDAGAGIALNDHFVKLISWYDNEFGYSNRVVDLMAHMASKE
Sequence of Large neutral amino acids transporter small subunit 1 (Homo sapiens) (Q01650 whole entry): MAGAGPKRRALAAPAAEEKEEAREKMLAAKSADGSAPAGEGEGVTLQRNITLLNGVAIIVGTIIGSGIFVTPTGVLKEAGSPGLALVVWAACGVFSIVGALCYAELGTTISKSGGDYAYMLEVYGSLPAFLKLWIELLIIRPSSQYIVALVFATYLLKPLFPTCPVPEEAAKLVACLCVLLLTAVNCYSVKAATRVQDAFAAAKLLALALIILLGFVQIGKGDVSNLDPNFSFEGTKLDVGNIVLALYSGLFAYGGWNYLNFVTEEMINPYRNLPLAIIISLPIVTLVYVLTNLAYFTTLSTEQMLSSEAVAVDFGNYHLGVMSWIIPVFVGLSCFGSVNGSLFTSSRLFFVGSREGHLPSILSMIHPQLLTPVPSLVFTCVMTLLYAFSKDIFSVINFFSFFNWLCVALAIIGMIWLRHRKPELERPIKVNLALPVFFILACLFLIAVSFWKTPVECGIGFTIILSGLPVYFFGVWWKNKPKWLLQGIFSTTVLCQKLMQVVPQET

Turning to `CCC(=O)N1CCN(c2ccc(-n3c(=O)ccc4cnc5ccc(-c6cnc7ccccc7c6)cc5c43)cc2C(F)(F)F)CC1`, the inhibition entry in [1], in experiment [2], in [3], in experiment [4], in experiment [5] and in experiment [6] was “Active” throughout. Also, in experiment [7], the inhibition result is “Active”.

On to `N#C/C=N/c1c(SS)c(-c2ccccc2)nn1Cc1ccccc1`, for which the inhibition in experiment [8] was more than 90%.

With `NC1(C(=O)O)CC2CCC1C2` (stereo not drawn), the inhibition entry in [9] is “Active”.

`Fc1ccc(Cl)cc1/N=c1\ssnc1Cl` yielded an inhibition in experiment [8] of more than 90%.

`CC[C@H]1/C=C/C=C/C[C@@H](C)[C@H](O)[C@@](C)(O)C(=O)[C@@H](C)[C@H](O)[C@@H](C)C(=O)[C@@H](C)[C@H](O)[C@@H](C)/C=C/C(=O)O[C@@H]2[C@H](C)[C@H](CC1)O[C@]1(CC[C@H](C)[C@H](C[C@@H](C)O)O1)[C@H]2C`: the inhibition result in experiment [10], in experiment [11] and in [13] was “Active” throughout. The inhibition result in experiment [12] was “inactive”.

In turn, `N#Cc1c(Br)cccc1/N=c1\ssnc1Cl` displayed an inhibition in experiment [8] of more than 90%.

On to `CC(C)(C)c1cc(CN(C(=O)CN(Cc2ccc(Cl)cc2)S(=O)(=O)c2c(F)c(F)c(F)c(F)c2F)c2ccc(C(=O)O)cc2)cc(C(C)(C)C)c1`, for which the inhibition entry in [14] and in [15] was “Active” throughout.

For the compound `CC(C)[C@H]1CC[C@@]2(CO2)[C@H]2C(=O)OCC(C(=O)O)=C[C@H]12`, the inhibition entry in [16], in experiment [17], in experiment [18], in experiment [19], in experiment [20] and in [21] was “Active” throughout.

In general, inhibition refers to the relative decrease from the control value, in per cent.
